# Test results as given in US20230181657A1, “NOVEL LACTIC ACID BACTERIA AND USE THEREOF” (UNIVERSITY- INDUSTRY COOPERATION GROUP OF KYUNG HEE …, priority 2018, published 2023).
# Columns and labels:
# Type in all cases: in vivo
# [1] = test system: animal model with osteoporosis (C57BL/6 mice with removed ovaries); experiment: Osteoporosis indices in blood (AP activity, Ca, P, osteocalcin) of ovariectomized mice; conditions: bacteria 1×10^9 CFU orally for five weeks
# Method: (§1) An experiment was performed by using six C57BL/6 mice (female, 21-23 g and 6 weeks old) per group after being acclimated in a laboratory for one week. After the mice were anesthetized with isoflurane, the ovaries were removed therefrom to create an animal model with osteoporosis. From one week after ovarian removal, Lactobacillus plantarum NK3, Bifidobacterium longum NK49, a 1:1 mixture thereof, or a 4:1 mixture thereof (a ratio of LP:BL is 4:1 and the same as below), which is a novel lactic acid bacterium, was orally administered in a daily amount of 1×10^9 CFU for six days a week for five weeks. In addition, 17β-estradiol (PC) was intraperitoneally administered at 10 μg/kg/day to the experimental animals of the positive control group, and the sham group and the experimental group with removed ovaries were orally dosed with physiological saline solution instead of drugs.
# On the day after the administration of lactic acid bacteria was completed, the experimental animals were sacrificed, and then blood, thighbone, colon, womb, and liver were separated therefrom so as to measure osteoporosis indices.
# Osteocalcin in blood was measured with R&D system ELISA Kit (Minneapolis, Minn., USA); Ca and P were measured with ASAN Ca-Lq Reagents and ASAN Pi-Lq Reagents of Asan Pharmaceutical Co., Ltd, respectively; and alkaline phosphatase (AP) activity was measured with Alkaline phosphatase activity colorimetric assay kit (Sigma, USA).
# [2] = test system: SREBP-1c; experiment: SREBP-1c expression in liver by qPCR, ovariectomized obesity model; conditions: liver mRNA, qPCR in comparison with β-actin; mice with removed ovaries; bacteria 1×10^9 CFU orally, PC 10 μg/kg/day intraperitoneally; Nor 1.0 ± 0.1, Con 4.5 ± 0.5
# Method: as §1, with “week as described above in (1) of Example 2.” for “week.”, “isoflurane and” for “isoflurane,”, “therefrom, the resulting mice were raised for six weeks so as” for “therefrom”, “obesity, showing a significant weight gain.” for “osteoporosis.”, “thereof,” for “thereof (a ratio of LP:BL is 4:1 and the same as below),”, “drugs. […] The body weight was measured once a week. An expression of sterol regulatory element-binding transcription factor 1c (SREBP-1c) and peroxisome proliferator-activated receptor gamma coactivator 1-alpha (PGC-1α) was measured by using a quantitative reverse transcription polymerase chain reaction (qPCR). […] The amount of final expressed genes was calculated in comparison with β-actin.” for “drugs.”
# [3] = test system: PGC-1α; experiment: PGC-1α expression in liver by qPCR, ovariectomized obesity model; conditions: liver mRNA, qPCR in comparison with β-actin; mice with removed ovaries; bacteria 1×10^9 CFU orally, PC 10 μg/kg/day intraperitoneally; Nor 1.0 ± 0.1, Con 0.6 ± 0.2
# Method: as §1, with “week as described above in (1) of Example 2.” for “week.”, “isoflurane and” for “isoflurane,”, “therefrom, the resulting mice were raised for six weeks so as” for “therefrom”, “obesity, showing a significant weight gain.” for “osteoporosis.”, “thereof,” for “thereof (a ratio of LP:BL is 4:1 and the same as below),”, “drugs. […] The body weight was measured once a week. An expression of sterol regulatory element-binding transcription factor 1c (SREBP-1c) and peroxisome proliferator-activated receptor gamma coactivator 1-alpha (PGC-1α) was measured by using a quantitative reverse transcription polymerase chain reaction (qPCR). […] The amount of final expressed genes was calculated in comparison with β-actin.” for “drugs.”
smiles,measurement,setting,value
"C[C@]12CC[C@@H]3c4ccc(O)cc4CC[C@H]3[C@@H]1CC[C@@H]2O [PC, 17β-estradiol]",Osteocalcin in blood,"[1]; PC 10 μg/kg/day intraperitoneally, Con 1.85 ± 0.32",1.53 ± 0.15 µg/L
same,Ca in blood,"[1]; PC 10 μg/kg/day intraperitoneally, Con 6.4 ± 0.4",6.2 ± 0.2 mg/dL
same,P in blood,"[1]; PC 10 μg/kg/day intraperitoneally, Con 12.5 ± 1.5",12.1 ± 1.1 mg/dL
same,AP (alkaline phosphatase activity in blood),"[1]; PC 17β-estradiol 10 μg/kg/day intraperitoneally, Con 282.2 ± 10.3",220.6 ± 10.3 IU/L
same,SREBP-1c expression,[2],2.7 ± 0.3
same,PGC-1α expression,[3],0.8 ± 0.2
